Reference: patent US9193740B2, “Bismacrocyclic compounds as hepatitis C virus inhibitors” (Enanta Pharmaceuticals, Inc., priority 2009, dated 2015)

Tested on: HCV 1b genotype replicon
Assay: Cell-based HCV replicon assay (qRT-PCR or luciferase), genotype 1b
Conditions: Hepatitis C virus
Protocol: Cell-Based Replicon Assay
The anti-HCV activity of the compounds is determined using the cell-based replicon assay and the HCV replication assay described in US Publication No: 2010/0003214, incorporated herein by reference in its entirety.
HCV Replicon Assay—Luciferase
Since clinical drug resistance often develops in viral infections following single agent therapies, there is a need to assess the additive, antagonistic, or synergistic properties of combination therapies. We use the HCV replicon system to assess the potential use of the compound of the present invention or in combination therapies with Interferon alpha, cyclosporine analogs and inhibitors targeting other HCV proteins. The acute effects of a single or combinations of drugs are studied in the “Huh-luc/neo-ET” replicon with each chemical agent titrated in an X or Y direction in a 6 point two-fold dilution curve centered around the EC50 of each drug. […] Using this method, the combination data are analyzed for antagonistic, additive, or synergistic combination effects across the entire combination surface created by the diluted compounds in combination. […]

SMILES	EC50 [nM]
O=C1N[C@H]2CCCCC/C=C\[C@@H]3C[C@@]3(C(=O)NS(=O)(=O)C3CC3)NC(=O)[C@@H]3C[C@H](CN3C2=O)Oc2nc3ccccc3nc2-c2cccc(c2)OCC(F)(F)CO1 [Example 2]	< 1
CC1(C)CC/C=C/C(F)(F)c2nc3ccccc3nc2O[C@@H]2C[C@H]3C(=O)N[C@]4(C(=O)NS(=O)(=O)C5CC5)C[C@H]4/C=C\CCCCC[C@H](NC(=O)OC1)C(=O)N3C2 [Example 8]	< 1
